Data set [1] has as its system S. aureus CVCC 546. The data set is described as follows: Post-antibiotic effect (PAE). It is filed as cell-based, Staphylococcus aureus. Conditions: 2 × MIC, 2 h exposure, mean ± SD, n = 3. Here is the method:
The PAE was determined by exposing S. aureus cells to antimicrobial agent at 1×, 2×, or 4 × MIC for 2 h. After drug removal by dilution, the bacterial culture was incubated at 37°C and 250 rpm. An aliquot of samples (50 μL) were taken for CFU counts at different time intervals until bacterial cultures became turbid. Bacteria treated with DLP4 or vancomycin and left without treatment were used as the positive and blank controls, respectively. The PAE was calculated using the following formula: PAE = T − C, where T is the time for the CFU counts to increase by 10-fold above the count observed immediately after drug removal, and C is the corresponding time for the untreated control ([Oh et al., 2019]).

Data set [2] deals with Staphylococcus aureus CVCC 546. The experiment in a line: microbe, parasite or virus in culture. It is filed as cell-based. The protocol:
(§1) The minimal inhibitory concentration (MIC) was evaluated by a microtiter plate assay ([Wiegand et al., 2008]). Serial 2-fold dilutions of test peptides were placed into a 96-well plate containing identical bacterial inoculum and incubated at 37°C for 16∼20 h. Vancomycin was used as antibiotic control. The MIC value was defined as the lowest peptide concentration where no visible growth occurred. All tests were made in triplicate.

A further data set relates to S. suis CVCC 3928. The experiment in a line: MIC, microtiter plate assay. The class given is cell-based, Streptococcus suis. The settings on record: Streptococcus suis, CVCC3928, 37°C, 16∼20 h, triplicate. The protocol: as §1
A further data set has as its system mouse erythrocytes. The data set is described as follows: Hemolytic activity. It is filed as cell-based. Conditions: 128 μg/mL, 8% (v/v) mouse erythrocytes in PBS, 1 h, 37°C, absorbance 576 nm, n = 3. Here is the method: Hemolytic activity of peptides was evaluated with fresh mouse erythrocytes. Briefly, fresh mouse erythrocytes were collected, washed, and resuspended to a concentration of 8% (v/v) in PBS. Then, an aliquot of erythrocyte solution was added to 96-well plates containing an equal volume of peptide solution (1∼256 μg/mL) and was incubated for 1 h at 37°C. The erythrocyte suspension treated with 0.1% Triton X-100 and left untreated was employed as positive and negative controls, respectively. After centrifugation at 2000 rpm for 5 min, the supernatant was measured using a microplate reader at 576 nm. The percent hemolysis was calculated using the following formula: Percenthemolysis = [(A − A0)/(A100 − A0)] × 100%, where A, A100, and A0 represent the absorbance of the peptide sample and positive and negative controls, respectively.

The test system of data set [3] is S. aureus CVCC 546. The data set is described as follows: Mouse thigh infection model, CFU in thigh muscle. The class given is in vivo, mouse (female CD-1). Conditions: 10 mg/kg single i.p. dose 2 h post-infection, read 24 h post-infection, n = 6. The protocol: (§2) Mouse experiments were carried out at Gene Engineering Laboratory, Feed Research Institute of Chinese Academy of Agricultural Sciences (CAAS) and complied with institutional animal care and use policies and procedures (AEC-CAAS-20090609). All animal studies were performed with female CD-1 mice, 6∼7 weeks old.
(§3) S. aureus CVCC 546 in the exponential phase were resuspended in MHB and adjusted to 1 × 10^8 CFU/mL, a 0.1-mL inoculum was injected into the right thighs of mice. At 2 h post-infection, mice (n = 6) were administered intraperitoneally (i.p.) with peptides at 2.5, 5, or 10 mg/kg. Mice raised without any treatment, or treated with PBS, 10 mg/kg DLP4, or vancomycin were used as the blank and negative and positive controls, respectively. At 24 h post-infection, peripheral blood was collected and serum was separated for cytokine levels analysis by using enzyme-linked immunosorbent assay (ELISA) kit (R&D systems, United States). Mice were euthanized, the right thighs were aseptically removed and processed for colonies counting ([Ling et al., 2015]).

In data set [4] the test system is S. aureus CVCC 546. The experiment in a line: Membrane permeabilization, PI flow cytometry. The class given is cell-based, Staphylococcus aureus. Conditions: 2 × MIC, 0.5 h, 10^8 CFU/mL, n = 3. Here is the method:
The effects of peptides on membrane permeabilization were measured by flow cytometry ([Zhu et al., 2018]). […] Cells untreated and treated with 2 × MIC DLP4 or vancomycin were used as blank and positive controls. The fluorescence of the dye was monitored at an excitation wavelength of 488 nm and an emission wavelength of 635 nm.
(In flow cytometry, cells or beads pass a laser one at a time.)

Data set [5] deals with Salmonella pullorum CVCC 533. The experiment in a line: MIC, microtiter plate assay. It is filed as cell-based. The settings on record: Salmonella enterica, PULLORUM, 37°C, 16∼20 h, triplicate. Here is the method:
as §1

In data set [6] the test system is Escherichia coli ATCC 25922. The experiment in a line: MIC, microtiter plate assay. It is filed as cell-based. The settings on record: Escherichia coli, ATCC25922, 37°C, 16∼20 h, triplicate. The protocol: as §1
The test system of data set [7] is Streptococcus pneumoniae CVCC 2350. The data set is described as follows: MIC, microtiter plate assay. The class given is cell-based. The settings on record: Streptococcus pneumoniae, CVCC2350, 37°C, 16∼20 h, triplicate. Here is the method:
as §1

Data set [8] concerns mouse macrophage RAW 264.7. The experiment in a line: Cytotoxicity, MTT assay. The class given is cell-based. Conditions: 256 μg/mL, RAW 264.7, MTT, n = 4. Here is the method:
The cytotoxicity of peptides toward mouse macrophage RAW 264.7 was evaluated by the MTT assay as described previously ([Wang X. et al., 2018]).
On the technique in general: Tetrazolium dyes change colour on reduction, which living cells bring about.

The test system of another data set is S. enteritidis CVCC 3377. The experiment in a line: MIC, microtiter plate assay. It is filed as cell-based, Salmonella enteritidis. Conditions: Salmonella enterica, ENTERITIDIS, 37°C, 16∼20 h, triplicate. Here is the method:
as §1

For data set [9], the system named is S. aureus CVCC 546. The experiment in a line: Time-kill assay. The class given is cell-based, Staphylococcus aureus. The settings on record: 2 × MIC, MHB, 10^5 CFU/mL, 37°C, n = 3. An excerpt: Time-kill assay was used to assess the killing rates of S. aureus cells by AMPs in vitro, done by measuring the number of viable bacteria left at various times after exposure to the peptides. […] At different time intervals, a certain sample was taken, serially diluted, and plated on MHA for colonies counting. Cells treated with 2 × MIC DLP4 or vancomycin and left without treatment were used as the positive and blank controls, respectively ([Flamm et al., 2019]).

Data set [10] has as its system S. epidermidis ATCC 12228. The data set is described as follows: MIC, microtiter plate assay. The settings on record: Staphylococcus epidermidis, ATCC12228, 37°C, 16∼20 h, triplicate. The class given is cell-based, Staphylococcus epidermidis. Here is the method:
as §1

In another data set the test system is E. coli K88. The experiment in a line: MIC, microtiter plate assay. The class given is cell-based, Escherichia coli. The settings on record: Escherichia coli, K88, 37°C, 16∼20 h, triplicate. Here is the method:
as §1

The subject of another data set is IL-6. The data set is described as follows: Mouse thigh infection model, serum cytokine ELISA. It is filed as in vivo, mouse (female CD-1). Conditions: 10 mg/kg i.p., serum 24 h post-infection. The protocol:
as §2, §3
(In an ELISA, binding on a coated surface is turned into a signal by an enzyme label.)

For the next data set, the system named is TNF-α. The data set is described as follows: Mouse thigh infection model, serum cytokine ELISA. It is filed as in vivo, mouse (female CD-1). Conditions: 10 mg/kg i.p., serum 24 h post-infection. Here is the method:
as §2, §3

The subject of a further data set is IL-10. The data set is described as follows: Mouse thigh infection model, serum cytokine ELISA. The class given is in vivo, mouse (female CD-1). Conditions: 10 mg/kg i.p., serum 24 h post-infection. Here is the method: as §2, §3
The next data set relates to S. aureus ATCC 43300. It is filed as cell-based, Staphylococcus aureus. Conditions: microtiter, serial 2-fold dilutions, 37°C, 16∼20 h, triplicate; – = no activity. In outline:
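Each strain was exposed to two-fold serial dilutions of peptide in a plate assay. After incubation for 16∼20 h at 37°C, wells were scored for growth, and the MIC was recorded as the lowest concentration lacking visible growth.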

The test system of data set [11] is S. aureus CVCC 546. The data set is described as follows: Potassium ion (K+) leakage. The settings on record: 1 × MIC, treated for 150 min, 0.9% saline, 10^8 CFU/mL, ICP, n = 3. It is filed as cell-based, Staphylococcus aureus. The protocol: To further investigate the effects of peptides on membrane integrity, K^+ leakage determination was carried out as previously described ([Miao et al., 2016]). Briefly, S. aureus CVCC 546 cells were centrifuged, washed, and resuspended in 0.9% sterile saline. The cell suspension (10^8 CFU/mL) was treated with peptides at 1 × MIC. Cells untreated and treated with DLP4 or nisin were used as blank and positive controls. At time intervals of 30, 60, 90, 120, and 150 min, the suspensions were centrifuged at 12000 rpm for 5 min. The supernatants were then subjected to measurement by Agilent inductively coupled plasma optical emission (ICP-OES).

“And” between values parts separate entries of the source, which are not always exact repeats. Identical values can stand only once. Ends that are not written are not given here. Peptide text beside a SMILES is read from it.

Consider three compounds from publication PMC7291858, “An Enhanced Variant Designed From DLP4 Cationic Peptide Against Staphylococcus aureus CVCC 546” (Frontiers in Microbiology, 2020).

`CN[C@H](CC(C)C)C(=O)N[C@H]1C(=O)N[C@@H](CC(N)=O)C(=O)N[C@H]2C(=O)N[C@H]3C(=O)N[C@H](C(=O)N[C@H](C(=O)O)c4cc(O)cc(O)c4-c4cc3ccc4O)[C@H](O)c3ccc(c(Cl)c3)Oc3cc2cc(c3O[C@@H]2O[C@H](CO)[C@@H](O)[C@H](O)[C@H]2O[C@H]2C[C@](C)(N)[C@H](O)[C@H](C)O2)Oc2ccc(cc2Cl)[C@H]1O` [Vancomycin]: the PAE in the data set on S. aureus CVCC 546 [1] was 1.36 ± 0.20 h. In addition, the MIC in data set [2] (Staphylococcus aureus, CVCC546, 20 h) was 0.67 µM and 1 µg/mL; in the data set on S. suis CVCC 3928, 0.17 µM and 0.25 µg/mL; in [5] it was 86.2 µM and 128 µg/mL; in data set [6], 86.2 µM and 128 µg/mL; in [7], 0.34 µM and 0.5 µg/mL; against S. enteritidis CVCC 3377, 86.2 µM and 128 µg/mL. The MIC in data set [10] is 0.67 µM and 1 µg/mL; with E. coli K88 it was 43.1 µM and 64 µg/mL. Also, the hemolysis in the data set with mouse erythrocytes was 0.54%. The “reduction of S. aureus in infected thigh muscles” value in the data set on S. aureus CVCC 546 [3] was 0.77 log10 (CFU/g). Further, the “percentage of PI-positive cells” value with S. aureus CVCC 546 [4] stood at 5.1%. The compound also came in with a cell viability in [8] of 85.8%. In addition, the “decrease of CFU counts within 1 h” value in the data set on S. aureus CVCC 546 [9] is on record as 0.22 log10 CFU/mL. The “downregulation of serum level of IL-6” value with IL-6 came to 497.48 pg/mL. The “downregulation of serum level of TNF-α” value in the data set with TNF-α is 1052.98 pg/mL. Besides, in the data set on IL-10, the “downregulation of serum level of IL-10” value is recorded as 15.82 pg/mL.

In data set [2] (Table 1, – = no activity), `CC[C@H](C)[C@@H]1NC(=O)[C@@H]2CSSC[C@@H](C(=O)N[C@@H](CCCNC(=N)N)C(=O)N[C@@H](CCCCN)C(=O)O)NC(=O)[C@H](CC(N)=O)NC(=O)[C@@H]3CSSC[C@H](NC(=O)[C@H](C)NC(=O)[C@H](C)NC(=O)[C@H](Cc4c[nH]cn4)NC(=O)CNC(=O)[C@H](C(C)C)NC(=O)[C@H](CCCCN)NC(=O)[C@H](Cc4ccccc4)NC(=O)[C@@H]4CCCN4C(=O)[C@H](CO)NC(=O)[C@H](CC(C)C)NC(=O)[C@H](CC(C)C)NC(=O)[C@H](CC(=O)O)NC(=O)[C@@H](NC(=O)[C@@H](NC(=O)[C@H](C)N)[C@@H](C)O)CSSC[C@H](NC(=O)[C@H](Cc4c[nH]c5ccccc45)NC(=O)CNC(=O)CNC(=O)[C@H](CCCNC(=N)N)NC(=O)[C@H](CCCCN)NC(=O)CNC(=O)[C@H](CCCNC(=N)N)NC(=O)[C@H](C)NC1=O)C(=O)N[C@@H](CC(=O)O)C(=O)N[C@@H](CCCCN)C(=O)N[C@@H](CCCNC(=N)N)C(=O)N[C@@H](C)C(=O)N[C@@H](C(C)C)C(=O)N3)C(=O)N[C@@H](C)C(=O)N[C@@H](CC(C)C)C(=O)N[C@@H](Cc1c[nH]cn1)C(=O)N2` [ID27] (HELM PEPTIDE1{A.T.C.D.L.L.S.P.F.K.V.G.H.A.A.C.A.L.H.C.I.A.R.G.K.R.G.G.W.C.D.K.R.A.V.C.N.C.R.K}$PEPTIDE1,PEPTIDE1,3:R3-30:R3|PEPTIDE1,PEPTIDE1,16:R3-36:R3|PEPTIDE1,PEPTIDE1,20:R3-38:R3$$$V2.0; N-terminus and C-terminus assumed; bridges inferred) displayed an MIC of 8. In the data set on S. aureus ATCC 43300, the “A1 (MIC against S. aureus ATCC 43300)” value is 8 µg/mL.

“nisin (ITSISLCTPGCKTGALMGCNMKTATCHCSIHVSK; also: lantibiotic: thioether rings and dehydro residues not placed; UniProt P13068 24-57, looked up) [positive control in K+ leakage assay]”: the “level of released K+” value with S. aureus CVCC 546 [11] turned out to be 1.03 mg/L.

By cell viability is commonly meant a per cent measure of how many cells are alive, often set against a control. Read a low cell viability as a greater loss of cells.
